In ChEMBL document CHEMBL5223120 (Bioorg Med Chem Lett, 2022):

Assays:
Type in all cases: ADME, organism-based
Conditions in all cases: in vivo
[1] = AUC in mouse at 10 mg/kg, po by WinNonlin non-compartmental analysis; parameters: dose 10 mg/kg, route po
[2] = Oral bioavailability in mouse at 10 mg/kg by WinNonlin non-compartmental analysis
[3] = Cmax in mouse at 10 mg/kg, po by WinNonlin non-compartmental analysis; parameters: dose 10 mg/kg, route po

SMILES	AUC ([1]; read-out: AUC)	bioavailability [2]	Cmax [3]	AUC [1]	F ([2]; po, 10 mg/kg)
CC(C)c1cnc(-c2cc(Cl)ccc2F)cc1Nc1ccncc1C(=O)NCC(N)=O	1.47 µM·h	38%	990 nM	–	–
CC(C)c1cnc(-c2cc(Cl)ccc2F)cc1Nc1ccncc1C(=O)NCCN	0.93 µM·h	16%	200 nM	–	–

More lines, now with the values ahead:

AUC ([1]; read-out: AUC)	bioavailability [2]	Cmax [3]	AUC [1]	F ([2]; po, 10 mg/kg)	SMILES
16.2 µM·h	87%	7070 nM	–	–	CC(C)c1cnc(-c2cc(Cl)ccc2F)cc1Nc1ccncc1C(=O)NC(CO)CO [PF-06952229]
2.54 µM·h	33%	1880 nM	–	–	CC(C)c1cnc(-c2cc(Cl)ccc2F)cc1Nc1ccncc1C(=O)NC[C@H](C)O
–	–	1570 nM	5.25 µM·h	88%	CC(C)c1cnc(-c2cc(Cl)ccc2F)cc1Nc1ccncc1C(=O)N[C@@H](C)CO
